Test results: US10696693B2, “Fused imidazole derivatives as TGF-beta inhibitors” (Rigel Pharmaceuticals, Inc., priority 2014, dated 2020)
Read-outs that look alike come from different tables or passages of the source.

How the values were obtained:
[1] = tested on: TGF-β; experiment: AlphaScreen SureFire p-SMAD3 (Ser423/425) assay, TGF-β-stimulated cells; type: cell-based; settings: Mus musculus
Text: (§1) The p-SMAD-3 (Ser423/425) SureFire® assay has been designed to measure the phosphorylation of endogenous cellular p-SMAD-3 (Ser423/425) in cell lysates and is a system for the screening of both modulators of receptor activation (e.g. agonists and antagonists) as well as agents acting intracellularly, such as small molecule inhibitors of upstream events. The assay will measure p-SMAD-3 (Ser423/425) activation by either cloned or endogenous receptors, and can be applied to primary cells.
(§2) 96-well Assay Protocol for 293FT and RMS13 adherent cells can be carried out manually or in high throughput with liquid handling robots.
(§3) The cells (80 μL of cells for 96 well plates) were plated in collagen coated tissue culture plates in RPMI or FreeStyle medium (Invitrogen) and incubated overnight. For manual analysis, 6 plates for GDF8, 6 plates for TGFβ, and optionally 6 plates for Alk5ca(ALK5 constitutively active) were used.
(§4) The compound dilution plates were prepared as follows: 12 μL of DMSO was transferred into first column of 96-well plate, and 16 μL of DMSO was transferred into columns 2-12 of the 96-well plate. 12 μL of compound solution was transferred into first column of the DMSO-containing 96-well plate. Three-fold dilution was performed up to column 10 of the DMSO-containing 96-well plate.
(§5) The plate containing cells were treated with compounds for about 10 minutes, and then ligand was added. GDF8 or TGFb was added to plates to stimulate. 293FL cells were stimulatedfor 90 minutes at 37° C.; and RMS13 cells were stimulated for 60 minutes at 37° C. The medium was then removed from the cells, and 1× Lysis Buffer (about 25 μL) was added and the plate was gently agitated on plate shaker for 5-10 minutes.
(§6) The lysate (5 μL) was then placed into 384-well shallow plates avoiding the generation of bubbles. To this, the Reaction Buffer+Activation Buffer+AlphaScreen® Acceptor beadsmixture (5 μL) was added. The plate was sealed with adhesive cover and shielded from light (e.g., with metal foil), and agitated gently on plate shaker for 2 hours at room temperature.
(§7) Dilution buffer+AlphaScreen® Donor beads (2 μL) was then added, and the plate was intubated on the plate shaker for an additional 1½ hours. After completion, the plate was read on Synergy-4 or Enspire plate reader, using AlphaScreen® pSMAD3® settings.
(§8) Representative results for inhibition of GDF8 (data=GDF pSMAD (MPC11) (μM)) and TGF-β (data=TGF-β pSMAD (MPC-11) (μM)) signaling are shown in Table 1(A=<0.05 μM, B=0.05−<0.1 μM, C=0.1−<1.0 μM, D=>1.0 μM): […]

[2] = tested on: GDF8; experiment: AlphaScreen SureFire p-SMAD3 (Ser423/425) assay, GDF8-stimulated cells; type: cell-based; settings: Mus musculus
Text: as §1, §2, §3, §4, §5, §6, §7, §8

[3] = p-SMAD3 (Ser423/425) AlphaScreen in cell lysate, MPC-11, TGF-β stimulation, read-out: TGF-β: inhibition of TGF-β signaling, TGF-β pSMAD (MPC-11)
[4] = MPC-11, p-SMAD3 (Ser423/425) AlphaScreen in cell lysate, MPC11, GDF8 stimulation, read-out: GDF8: inhibition of GDF8 signaling, GDF pSMAD (MPC11)
[5] = MPC-11, read-out: TGF-β: inhibition of TGF-β signaling, TGF-β pSMAD (MPC-11), p-SMAD3 (Ser423/425) AlphaScreen in cell lysate, TGF-β stimulation
[6] = MPC-11, read-out: GDF8: inhibition of GDF8 signaling, GDF pSMAD (MPC11), p-SMAD3 (Ser423/425) AlphaScreen in cell lysate, GDF8 stimulation

| SMILES | IC50 [1, 3] [nM] | IC50 [2, 4] [nM] | IC50 [1, 5] [nM] | IC50 [2, 6] [nM] |
| --- | --- | --- | --- | --- |
| Cc1ccccc1-c1nc2n(c1-c1ccc3ncnn3c1)CCC2 [Compound 62, 6-(2-(2-methylphenyl)-6,7-dihydro-5H-pyrrolo[1,2-a]imidazol-3-yl)-[1,2,4]triazolo[1,5-a]pyridine] | – | – | > 1000 | > 1000 |
| Cc1c(F)ccc(-c2nc3n(c2-c2ccc4ncnn4c2)CCC3)c1Cl [Compound 66, 6-(2-(2-chloro-4-fluoro-3-methylphenyl)-6,7-dihydro-5H-pyrrolo[1,2-a]imidazol-3-yl)-[1,2,4]triazolo[1,5-a]pyridine] | > 1000 | 100 to 1000 | – | – |
| Cc1cc(-c2nc3n(c2-c2ccc4ncnn4c2)CCC3)c(Cl)cc1F [Compound 69, 6-(2-(2-chloro-4-fluoro-5-methylphenyl)-6,7-dihydro-5H-pyrrolo[1,2-a]imidazol-3-yl)-[1,2,4]triazolo[1,5-a]pyridine] | 100 to 1000 | 50 to 100 | – | – |
| Fc1ccc(-c2nc3n(c2-c2ccc4ncnn4c2)CC2(CCCC2)C3)cc1 [Compound 71, 3′-([1,2,4]triazolo[1,5-a]pyridin-6-yl)-2′-(4-fluorophenyl)-5′H,7′H-spiro[cyclopentane-1,6′-pyrrolo[1,2-a]imidazole]] | – | – | > 1000 | > 1000 |
| Cc1c(F)ccc(-c2nc3n(c2-c2ccc4ncnn4c2)CCC3)c1C [Compound 73, 6-(2-(4-fluoro-2,3-dimethylphenyl)-6,7-dihydro-5H-pyrrolo[1,2-a]imidazol-3-yl)-[1,2,4]triazolo[1,5-a]pyridine] | – | – | > 1000 | 100 to 1000 |
| OCC1CCC2(CC1)Cc1nc(-c3ccc(F)cc3)c(-c3ccc4ncnn4c3)n1C2 (centres unmarked) [Compound 75, (3′-([1,2,4]triazolo[1,5-a]pyridin-6-yl)-2′-(4-fluorophenyl)-5′H,7′H-spiro[cyclohexane-1,6′-pyrrolo[1,2-a]imidazol]-4-yl)methanol] | – | – | > 1000 | > 1000 |
| O=C(O)C1CCC2(CC1)Cc1nc(-c3ccc(F)cc3)c(-c3ccc4ncnn4c3)n1C2 (centres unmarked) [Compound 76, 3′-([1,2,4]triazolo[1,5-a]pyridin-6-yl)-2′-(4-fluorophenyl)-5′H,7′H-spiro[cyclohexane-1,6′-pyrrolo[1,2-a]imidazole]-4-carboxylic acid] | – | – | > 1000 | > 1000 |
| CCOC(=O)C1CCC2(CC1)Cc1nc(-c3ccc(F)cc3)c(-c3ccc4ncnn4c3)n1C2 (centres unmarked) [Compound 77, ethyl 3′-([1,2,4]triazolo[1,5-a]pyridin-6-yl)-2′-(4-fluorophenyl)-5′H,7′H-spiro[cyclohexane-1,6′-pyrrolo[1,2-a]imidazole]-4-carboxylate] | – | – | > 1000 | > 1000 |
| CN(C)C(=O)C1CCC2(CC1)Cc1nc(-c3ccc(F)cc3)c(-c3ccc4ncnn4c3)n1C2 (centres unmarked) [Compound 79, 3′-([1,2,4]triazolo[1,5-a]pyridin-6-yl)-2′-(4-fluorophenyl)-N,N-dimethyl-5′H,7′H-spiro[cyclohexane-1,6′-pyrrolo[1,2-a]imidazole]-4-carboxamide] | – | – | > 1000 | > 1000 |
| NC(=O)C1CCC2(CC1)Cc1nc(-c3ccc(F)cc3)c(-c3ccc4ncnn4c3)n1C2 (centres unmarked) [Compound 80, 3′-([1,2,4]triazolo[1,5-a]pyridin-6-yl)-2′-(4-fluorophenyl)-5′H,7′H-spiro[cyclohexane-1,6′-pyrrolo[1,2-a]imidazole]-4-carboxamide] | – | – | > 1000 | > 1000 |
| Fc1ccc(-c2nc3n(c2-c2ccc4ncnn4c2)CCC3)c(F)c1Cl [Compound 81, 6-(2-(3-chloro-2,4-difluorophenyl)-6,7-dihydro-5H-pyrrolo[1,2-a]imidazol-3-yl)-[1,2,4]triazolo[1,5-a]pyridine] | – | – | 100 to 1000 | 100 to 1000 |
| CS(=O)(=O)OCC1CCC2(CC1)Cc1nc(-c3ccc(F)cc3)c(-c3ccc4ncnn4c3)n1C2 (centres unmarked) [Compound 84, (3′-([1,2,4]triazolo[1,5-a]pyridin-6-yl)-2′-(4-fluorophenyl)-5′H,7′H-spiro[cyclohexane-1,6′-pyrrolo[1,2-a]imidazol]-4-yl)methyl methanesulfonate] | > 1000 | > 1000 | – | – |

The next lines start with results.

| IC50 [1, 3] [nM] | IC50 [2, 4] [nM] | SMILES | IC50 [1, 5] [nM] | IC50 [2, 6] [nM] |
| --- | --- | --- | --- | --- |
| 100 to 1000 | 100 to 1000 | N#Cc1cnc2ccc(-c3c(-c4ccc(F)c(Cl)c4)nc4n3CCC4)cn12 [Compound 61, 6-(2-(3-chloro-4-fluorophenyl)-6,7-dihydro-5H-pyrrolo[1,2-a]imidazol-3-yl)imidazo[1,2-a]pyridine-3-carbonitrile] | – | – |
| > 1000 | > 1000 | Cc1ccccc1-c1nc2n(c1-c1ccc3nccn3c1)CCC2 [Compound 63, 6-(2-(2-methylphenyl)-6,7-dihydro-5H-pyrrolo[1,2-a]imidazol-3-yl)imidazo[1,2-a]pyridine] | – | – |
| > 1000 | 100 to 1000 | Cc1cc(-c2nc3n(c2-c2ccc4ncnn4c2)CCC3)c(C)cc1F [Compound 64, 6-(2-(4-fluoro-2,5-dimethylphenyl)-6,7-dihydro-5H-pyrrolo[1,2-a]imidazol-3-yl)-[1,2,4]triazolo[1,5-a]pyridine] | – | – |
| > 1000 | 100 to 1000 | Cc1cc(-c2nc3n(c2-c2ccc4nccn4c2)CCC3)c(C)cc1F [Compound 65, 6-(2-(4-fluoro-2,5-dimethylphenyl)-6,7-dihydro-5H-pyrrolo[1,2-a]imidazol-3-yl)imidazo[1,2-a]pyridine] | – | – |
| > 1000 | 100 to 1000 | Cc1c(F)ccc(-c2nc3n(c2-c2ccc4nccn4c2)CCC3)c1Cl [Compound 67, 6-(2-(2-chloro-4-fluoro-3-methylphenyl)-6,7-dihydro-5H-pyrrolo[1,2-a]imidazol-3-yl)imidazo[1,2-a]pyridine] | – | – |
| 100 to 1000 | 50 to 100 | Cc1cc(-c2nc3n(c2-c2ccc4nccn4c2)CCC3)c(Cl)cc1F [Compound 68, 6-(2-(2-chloro-4-fluoro-5-methylphenyl)-6,7-dihydro-5H-pyrrolo[1,2-a]imidazol-3-yl)imidazo[1,2-a]pyridine] | – | – |
| > 1000 | > 1000 | O=S(=O)(Nc1cccc(-c2nc3n(c2-c2ccc4nccn4c2)CCC3)c1)c1ccccc1F [Compound 70, 2-fluoro-N-(3-(3-(imidazo[1,2-a]pyridin-6-yl)-6,7-dihydro-5H-pyrrolo[1,2-a]imidazol-2-yl)phenyl)benzenesulfonamide] | – | – |
| > 1000 | > 1000 | Fc1ccc(-c2nc3n(c2-c2ccc4nccn4c2)CC2(CCCC2)C3)cc1 [Compound 72, 2′-(4-fluorophenyl)-3′-(imidazo[1,2-a]pyridin-6-yl)-5′H,7′H-spiro[cyclopentane-1,6′-pyrrolo[1,2-a]imidazole]] | – | – |
| > 1000 | 100 to 1000 | Cc1c(F)ccc(-c2nc3n(c2-c2ccc4nccn4c2)CCC3)c1C [Compound 74, 6-(2-(4-fluoro-2,3-dimethylphenyl)-6,7-dihydro-5H-pyrrolo[1,2-a]imidazol-3-yl)imidazo[1,2-a]pyridine] | – | – |
| > 1000 | > 1000 | CNC(=O)C1CCC2(CC1)Cc1nc(-c3ccc(F)cc3)c(-c3ccc4ncnn4c3)n1C2 (centres unmarked) [Compound 78, 3′-([1,2,4]triazolo[1,5-a]pyridin-6-yl)-2′-(4-fluorophenyl)-N-methyl-5′H,7′H-spiro[cyclohexane-1,6′-pyrrolo[1,2-a]imidazole]-4-carboxamide] | – | – |
| < 50 | < 50 | Fc1ccc(Cl)cc1-c1nc2n(c1-c1ccc3ncnn3c1)CCC2 [Compound 82, 6-(2-(5-chloro-2-fluoro)-6,7-dihydro-5H-pyrrolo[1,2-a]imidazol-3-yl)-[1,2,4]triazolo[1,5-a]pyridine] | – | – |
| < 50 | < 50 | Fc1ccc(Cl)cc1-c1nc2n(c1-c1ccc3nccn3c1)CCC2 [Compound 83] | – | – |
| > 1000 | > 1000 | [N-]=[N+]=NCC1CCC2(CC1)Cc1nc(-c3ccc(F)cc3)c(-c3ccc4ncnn4c3)n1C2 (centres unmarked) [Compound 85, 3′-([1,2,4]triazolo[1,5-a]pyridin-6-yl)-4-(azidomethyl)-2′-(4-fluorophenyl)-5′H,7′H-spiro[cyclohexane-1,6′-pyrrolo[1,2-a]imidazole]] | – | – |
